According to patent US20230271933A1, “HETEROCYCLIC IMMUNOMODULATOR” (Beijing Innocare Pharma Tech Co., Ltd., priority 2020, published 2023):

What was measured:
[1] = In vivo pharmacokinetic experiment in rats; conditions: male Sprague-Dawley rats, n = 3; for F: PO 5 mpk vs IV 1 mpk; for clearance / Vd / AUC(0-t) / Cmax: rat, plasma; for clearance / Vd: 1 mg/kg, IV 1 mpk; for Vd: read-out: VSS; for AUC(0-t) / Cmax: 5 mg/kg, PO 5 mpk
Experimental: The compound to be tested was dissolved in 5% DMA+20% Solutol+75% Saline vehicle to prepare a 0.5 mg/mL administration solution.
2 mL/kg of the administration solution was administered through the intravenous injection (IV) at a dose of 1 mg/kg to three fed male Sprague-Dawley rats, respectively. Blood samples were collected at 0.083, 0.25, 0.5, 1, 2, 4, 8 and 24 hours after administration. 10 mL/kg of the administration solution was administered by gavage (PO) at a dose of 5 mg/kg to other three fed male Sprague-Dawley rats, respectively. Blood samples were collected at 0.25, 0.5, 1, 2, 4, 8 and 24 hours after administration.
The concentration of the compound to be tested in plasma was obtained with the LC-MS/MS quantitative analysis with an API-4500 mass spectrometer, and the limit of quantitation (LOQ) for the plasma was 1 ng/mL.

[2] = test system: NCI-H929 human myeloma cells; assay: Inhibition of the proliferation of NCI-H929 cells (luminescent cell viability, CTG); format: cell-based; conditions: Homo sapiens, NCI-H929, 144 h, 6 days, CellTiter-Glo
Experimental: The effect of the compounds of the present invention on the proliferation of NCI-H929 human myeloma cells was evaluated by using a luminescent cell viability test experiment.
The compound was dissolved and diluted to 5 mM in DMSO, and then serially diluted 4-fold in DMSO to a minimum concentration of 0.31 μM. Each concentration was further diluted 50-fold with RPMI 1640 medium (Thermo Fisher, Cat. No. 72400-047). If the IC50 value of the compound was relatively low, the initial concentration of the compound could be lowered.
NCI-H929 cells (Nanjing Cobioer, Cat. No. CBP60243) were cultured in RPMI 1640 complete medium [containing 10% FBS (GIBCO, Cat. No. 10099-141) and 100 units/mL penicillin-streptomycin (Thermo Fisher, Cat. No. 15140122)]. Cells (15000 cells/mL) were plated in 90 μL of the complete medium in a 96-well plate and cultured overnight, and then 10 μL of the compound solution was added into each well. The cells were cultured in an incubator at 37° C. and 5% CO2 for 6 days. Then the cell culture plate was taken out and balanced to room temperature according to the instruction of the CellTilter-Glo (CTG) kit (Promega, Cat. No. G7572). 50 μL CTG reagent was added for complete lysis, the plate was placed at room temperature for 10 minutes, and the luminescence signal was read with a microplate reader (EnVision, Perkin Elmer). The group containing 0.2% DMSO medium was used as 0% inhibition. The XLfit software was used to plot the compound inhibition curve and calculate the inhibitory IC50 value.

[3] = test system: TNFα; assay: Inhibition of TNFα secretion in LPS-stimulated hPBMC (ELISA); format: cell-based; conditions: Homo sapiens, overnight, read-out: IC50 (nM) for the inhibition of the TNFa secretion
Experimental: (§1) The immunomodulatory function of the compound of the present invention was evaluated by detecting its effect on the secretion amount of TNFα and IL-2 in cells from the human peripheral blood mononuclear cells (hPBMC) by the enzyme linked immunosorbent assay (ELISA) method.
(§2) The peripheral blood of healthy volunteers was collected by using EDTA anticoagulant tubes, and diluted with phosphate buffered saline (PBS) containing 2% fetal bovine serum (Gibco, Cat. No. 10099-141) in an equal volume ratio. 30 mL of the resulting diluted sample was transferred into a Sepmate-50 centrifuge tube (Stemcell, Cat. No. 86450) to which 15 mL of a density-gradient centrifugation liquid (Sigma, Cat. No. 10771) had been added in advance, and centrifuged at room temperature at 1200×g for 10 minutes. The liquid containing PBMC in the upper layer was transferred to a new 50-mL centrifuge tube, and centrifuged at room temperature at 300×g for 8 minutes. The supernatant was discarded, and the resulting PBMC was resuspended to 5×10^6/mL by using RPMI 1640 medium (Gibco, Cat. No. 72400-047). 80 μL of the resulting suspension was added to each well in a 96-well plate.
(§3) Each concentration was further diluted 50-fold with RPMI 1640 medium. 10 μL of each compound solution was added into the cells in the above 96-well plate. The 96-well plate was placed in an incubator, and the cells were cultured at 37° C. and 5% CO2 for 1 hour. 10 μL of LPS (Sigma, Cat. No. L-2880) with a concentration of 100 ng/mL was added, and the cells were continuously cultured in the incubator at 37° C. and 5% CO2 overnight. Supernatants were collected for the detection of TNFα.
(§4) TNFα and IL-2 were detected respectively according to each instruction of the ELISA kits (R&D, Cat. No. DY210 and DY202, respectively) to obtain the OD450 values for each well. The group containing 0.2% DMSO medium was used as 0% inhibition or stimulation. The XLfit software was used to plot the compound inhibition or stimulation curve and calculate the corresponding IC50 or EC50.

[4] = test system: IL-2; assay: Stimulation of IL-2 secretion in anti-CD3-stimulated hPBMC (ELISA); format: cell-based, human; conditions: Homo sapiens, anti-CD3 antibody, 72 hours
Experimental: as §1, §2, §3
The above-mentioned 96-well plate can also be placed in an incubator, and the cells were cultured at 37° C. and 5% CO2 for 1 hour. 10 μL of anti-CD3 antibody (Thermo Fisher, Cat. No. 14-0037-82) with a concentration of 500 ng/mL was added, and the cells were continuously cultured in the incubator at 37° C. and 5% CO2 for 72 hours. Supernatants were collected for the detection of IL-2.
as §4

Row | F [1] [%] | clearance [1] [mL/min/kg] | Vd [1] [L/kg] | AUC(0-t) [1] [ng·h/mL] | Cmax [1] [ng/mL] | IC50 [2] [nM] | IC50 [3] [nM] | EC50 [4] [nM] | SMILES
1 | 14 | 1 | 0.27 | 11800 | 1800 | 0.1 | 2.8 | 2.3 | C[C@H](c1ccc(COc2cccc3c2CN([C@H]2CCC(=O)NC2=O)C3=O)cc1)N1CCN(c2ccc(C#N)cc2F)CC1 [Compound 6, 4-(4-((R)-1-(4-(((2-((S)-2,6-dioxopiperidin-3-yl)-1-oxoisoindolin-4-yl)oxy)methyl)phenyl)ethyl)piperazin-1-yl)-3-fluorobenzonitrile]
2 | 27 | 5.2 | 0.56 | 4280 | 555 | 0.1 | 1.3 | 5.5 | C[C@H](c1ccc(COc2cccc3c2CN([C@H]2CCC(=O)NC2=O)C3=O)cc1)N1CCN(c2ccc(C#N)cn2)CC1 [Compound 16, 6-(4-((R)-1-(4-(((2-((S)-2,6-dioxopiperidin-3-yl)-1-oxoisoindolin-4-yl)oxy)methyl)phenyl)-ethyl)piperazin-1-yl)nicotinonitrile]
3 | 18 | 14 | 0.65 | 1010 | 318 | 0.04 | 0.5 | 3.8 | C[C@H](c1ccc(COc2cccc3c2CN([C@H]2CCC(=O)NC2=O)C3=O)cc1)N1CCN(c2ccc(C#N)nc2)CC1 [Compound 21, 5-(4-((R)-1-(4-(((2-((S)-2,6-dioxopiperidin-3-yl)-1-oxoisoindolin-4-yl)oxy)methyl)phenyl)ethyl)piperazin-1-yl)-2-cyanopyridine]
4 | 30 | 2.2 | 0.36 | 13000 | 1440 | 0.6 | 4.7 | 26 | C[C@H](c1ccc(COc2cccc3c2CN([C@H]2CCC(=O)NC2=O)C3=O)cc1)N1CCN(c2ncc(C#N)cc2F)CC1 [Compound 22, 6-(4-((R)-1-(4-(((2-((S)-2,6-dioxopiperidin-3-yl)-1-oxoisoindolin-4-yl)oxy)methyl)phenyl)-ethyl)piperazin-1-yl)-5-fluoronicotinonitrile]
